Experiment: DPPH radical scavenging antioxidant test
Format: biochemical
Conditions: 517 nm; for Inhibition (radical scavenging inhibition): 0.2 mL DPPH (0.75 mM), compound 3 μM in ethanol, 30 minutes in the dark
Method: The antioxidant properties of the 8-((4-hydroxyphenyl)diazenyl)naphthalene-1,3-disulfonic acid compound were studied by adding 0.2 mL DPPH (0.75 mM)) to 8-((4-hydroxyphenyl)diazenyl)naphthalene-1,3-disulfonic acid (III) (3 μM) in ethanol. After 30 minutes of incubation in the dark, the absorbance was read against a blank at 517 nm. Ascorbic acid (vitamin C) was used as standard antioxidants (positive control). A blank sample was prepared by 0.2 ml of DPPH in 3 mL ethanol. A negative control sample was run using ethanol instead of the sample. The radical scavenging inhibition was calculated using the following equation: […]
The antioxidant activity for the synthesized compound is listed in Table 1, using Vitamin C as a reference.

Row | Compound | Inhibition (radical scavenging inhibition) | antioxidant potential in DPPH test compared to vitamin C (in words) (DPPH in vitro test, vitamin C as positive control)
1 | O=S(=O)(O)c1cc(S(=O)(=O)O)c2c(/N=N/c3ccc(O)cc3)cccc2c1 [Product III, 8-((4-hydroxyphenyl)diazenyl)naphthalene-1,3-disulfonic acid] | 52% | high potential as an antioxidant compared to vitamin C
2 | O=C1O[C@H]([C@@H](O)CO)C(O)=C1O [vit c, Ascorbic acid, reference compound] | 74% | 

Source: patent US20250136544A1, “8-((4-HYDROXY-3-METHYLPHENYL)DIAZENYL)NAPHTHALENE-1,3-DISULFONIC ACID AS AN ANTIMICROBIAL COMPOUND” (KING FAISAL UNIVERSITY, priority 2023, published 2025)
